What was measured:
ECHCG [1] = test: Pre-emergence herbicidal action against ECHCG; type: in vivo, Echinochloa crus-galli; conditions: scored visually after about 3 weeks vs untreated controls, 100% = plants have died, 0% = like control plants
Procedure, shortened: (§1)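 Scoring is visual, in percent relative to untreated pots, roughly 3 weeks after soil-surface application. Rates were 1280 or 320 g/ha, delivered as WP or EC preparations with 0.5% additive in 600 L/ha water onto freshly sown, covered sandy loam.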

SETVI [2] = test: Pre-emergence herbicidal action against SETVI; type: in vivo, Setaria viridis; conditions: 1280 g/ha, scored visually after about 3 weeks vs untreated controls
Procedure, shortened: as §1

AMARE [3] = test: Pre-emergence herbicidal action against AMARE; type: in vivo, Amaranthus retroflexus; conditions: scored visually after about 3 weeks vs untreated controls; for Pre-emergence action against AMARE in %: 1280 g/ha; for Pre-emergence action at 320 g/ha against AMARE in %: 100% = plants have died, 0% = like control plants
Procedure, shortened: as §1

STEME [4] = test: Pre-emergence herbicidal action against STEME; type: in vivo, Stellaria media; conditions: scored visually after about 3 weeks vs untreated controls
Procedure, shortened: as §1

ECHCG [5] = test: Post-emergence herbicidal action against ECHCG; type: in vivo, Echinochloa crus-galli; conditions: 1280 g/ha, post-emergence at one-leaf stage, rated visually after about 3 weeks vs untreated controls
Procedure, shortened: (§2)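 Weeds grown in sandy loam under greenhouse conditions were sprayed at the one-leaf stage, 2-3 weeks after sowing. Compounds were applied as WP or EC formulations in water with 0.5% additive at 600 L/ha, at 1280 or 320 g/ha. Activity was rated visually about 3 weeks later against untreated controls (0-100%).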

LOLRI = test: Post-emergence herbicidal action against LOLRI; type: in vivo, Lolium rigidum; conditions: 1280 g/ha, post-emergence at one-leaf stage, rated visually after about 3 weeks vs untreated controls
Description: (§3) [table] Seeds of mono- and dicotyledonous weed plants are placed in plastic pots in sandy loam soil (twin sowing with one species each of mono- or dicotyledonous weed plants per pot), covered with soil and cultivated in a greenhouse under controlled growth conditions. 2 to 3 weeks after sowing, the test plants are treated at the one-leaf stage. The compounds of the invention, formulated in the form of wettable powders (WP) or as emulsion concentrates (EC), are applied to the green parts of the plants as aqueous suspension or emulsion with addition of 0.5% additive at a water application rate equivalent to 600 litres per hectare. After the test plants have been kept in the greenhouse under optimum growth conditions for about 3 weeks, the activity of the preparations is rated visually in comparison to untreated controls. For example, 100% activity=the plants have died, 0% activity=like control plants. Tables 5.1-5.16 below show the effects of selected compounds of the general formula (I) according to Tables 1 to 3 on various harmful plants at an application rate corresponding to 1280 or 320 g/ha, which have been obtained by the aforementioned experimental method.

SETVI [6] = test: Post-emergence herbicidal action against SETVI; type: in vivo, Setaria viridis; conditions: 1280 g/ha, post-emergence at one-leaf stage, rated visually after about 3 weeks vs untreated controls
Procedure, shortened: as §2

AMARE [7] = test: Post-emergence herbicidal action against AMARE; type: in vivo, Amaranthus retroflexus; conditions: visual rating about 3 weeks after treatment
Procedure, shortened: as §2

MATIN [8] = test: Post-emergence herbicidal action against MATIN; type: in vivo, Matricaria inodora; conditions: visual rating about 3 weeks after treatment
Procedure, shortened: as §2

STEME [9] = test: Post-emergence herbicidal action against STEME; type: in vivo, Stellaria media; conditions: visual rating about 3 weeks after treatment
Procedure, shortened: as §2

POLCO [10] = test: Pre-emergence herbicidal action against POLCO; type: in vivo, Polygonum convolvulus; conditions: 320 g/ha, scored visually after about 3 weeks vs untreated controls
Procedure, shortened: as §1

VERPE [11] = test: Pre-emergence herbicidal action against VERPE; type: in vivo, Veronica persica; conditions: 320 g/ha, scored visually after about 3 weeks vs untreated controls
Procedure, shortened: as §1

HORMU [12] = test: Pre-emergence herbicidal action against HORMU; type: in vivo, Hordeum murinum; conditions: 320 g/ha, scored visually after about 3 weeks vs untreated controls
Description: (§4) Seeds of mono- and dicotyledonous weed plants are placed in plastic pots in sandy loam soil (doubly sown with one species each of mono- or dicotyledonous weed plants per pot) and covered with soil. The compounds of the invention, formulated in the form of wettable powders (WP) or as emulsion concentrates (EC), are then applied onto the surface of the covering soil as aqueous suspension or emulsion with addition of 0.5% additive at a water application rate equivalent to 600 litres per hectare. After the treatment, the pots are placed in a greenhouse and kept under good growth conditions for the trial plants. After about 3 weeks, the effect of the preparations is scored visually in comparison with untreated controls as percentages. For example, 100% activity=the plants have died, 0% activity=like control plants. [table] Tables 4.1-4.15 below show the effects of selected compounds of the general formula (I) according to Tables 1 to 3 on various harmful plants at an application rate corresponding to 1280 or 320 g/ha, which have been obtained by the aforementioned experimental method.

POLCO [13] = test: Post-emergence herbicidal action against POLCO; type: in vivo, Polygonum convolvulus; conditions: 320 g/ha, visual rating about 3 weeks after treatment
Procedure, shortened: as §2

VIOTR [14] = test: Post-emergence herbicidal action against VIOTR; type: in vivo, Viola tricolor; conditions: 320 g/ha, visual rating about 3 weeks after treatment
Procedure, shortened: as §2

HORMU [15] = test: Post-emergence herbicidal action against HORMU; type: in vivo, Hordeum murinum; conditions: 320 g/ha, visual rating about 3 weeks after treatment
Description: as §3

harmful plants = test: Pre-emergence herbicidal action, summary of Tables 4.1-4.15; type: in vivo; conditions: result in words
Procedure, shortened: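 Percent herbicidal action (100% = plants dead, 0% = like controls) was assessed visually about 3 weeks after treatment. Application rates of 1280 or 320 g/ha were applied to the covering soil of freshly sown sandy-loam pots, in 600 l/ha water with 0.5% additive, before emergence.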

ALOMY [16] = test: Pre-emergence herbicidal action against ALOMY; type: in vivo, Alopecurus myosuroides; conditions: scored visually after about 3 weeks vs untreated controls, 100% = plants have died, 0% = like control plants
Description: as §4

CYPES = test: Pre-emergence herbicidal action against CYPES; type: in vivo, Cyperus esculentus; conditions: scored visually after about 3 weeks vs untreated controls, 100% = plants have died, 0% = like control plants
Procedure, shortened: as §1

MATIN [17] = test: Pre-emergence herbicidal action against MATIN; type: in vivo, Matricaria inodora; conditions: 1280 g/ha, scored visually after about 3 weeks vs untreated controls
Procedure, shortened: as §1

AVEFA [18] = test: Pre-emergence herbicidal action against AVEFA; type: in vivo, Avena fatua; conditions: scored visually after about 3 weeks vs untreated controls, 100% = plants have died, 0% = like control plants
Description: as §4

VIOTR [19] = test: Pre-emergence herbicidal action against VIOTR; type: in vivo, Viola tricolor; conditions: 1280 g/ha, scored visually after about 3 weeks vs untreated controls
Procedure, shortened: as §1

ALOMY [20] = test: Post-emergence herbicidal action against ALOMY; type: in vivo, Alopecurus myosuroides; conditions: 1280 g/ha, post-emergence at one-leaf stage, rated visually after about 3 weeks vs untreated controls
Procedure, shortened: as §2

AVEFA [21] = test: Post-emergence herbicidal action against AVEFA; type: in vivo, Avena fatua; conditions: 1280 g/ha, post-emergence at one-leaf stage, rated visually after about 3 weeks vs untreated controls
Description: as §3

PHBPU = test: Post-emergence herbicidal action against PHBPU; type: in vivo, Pharbitis purpurea; conditions: 320 g/ha, visual rating about 3 weeks after treatment
Procedure, shortened: as §2

VERPE [22] = test: Post-emergence herbicidal action against VERPE; type: in vivo, Veronica persica; conditions: 320 g/ha, visual rating about 3 weeks after treatment
Procedure, shortened: as §2

SMILES	Pre-emergence action at 1280 g/ha against ECHCG in % (ECHCG [1]) [%]	Pre-emergence action against SETVI in % (SETVI [2]) [%]	Pre-emergence action against AMARE in % (AMARE [3]) [%]	Pre-emergence action against STEME in % (STEME [4]; 1280 g/ha) [%]	Post-emergence action against SETVI in % (SETVI [6]) [%]	Post-emergence action against AMARE in % (AMARE [7]; 1280 g/ha) [%]	Post-emergence action against MATIN in % (MATIN [8]; 1280 g/ha) [%]	Post-emergence action against STEME in % (STEME [9]; 1280 g/ha) [%]	Pre-emergence action at 320 g/ha against AMARE in % (AMARE [3]) [%]	Pre-emergence action against POLCO in % (POLCO [10]) [%]	Pre-emergence action against HORMU in % (HORMU [12]) [%]	Post-emergence action against AMARE in % (AMARE [7]; 320 g/ha) [%]	Post-emergence action against MATIN in % (MATIN [8]; 320 g/ha) [%]	Post-emergence action against POLCO in % (POLCO [13]) [%]	herbicidal efficacy against harmful plants in the case of pre-emergence treatment (harmful plants)	also measured
COC(=O)C(C)Oc1nn(-c2ccccc2F)c(-c2ccc(F)c(F)c2)c1C#N (stereo not drawn) [I-171]	90	100	100	100	100	90	90	100	–	–	–	–	–	–	–	Post-emergence action against ECHCG in % (ECHCG [5]): 100%; Post-emergence action against LOLRI in % (LOLRI): 100%
CC(Oc1nn(-c2ccccc2)c(-c2ccc(F)cc2)c1Cl)C(=O)O (stereo not drawn) [I-139]	100	100	100	100	–	–	90	90	100	90	90	90	80	90	good herbicidal efficacy	Pre-emergence action against STEME in % (STEME [4]; 320 g/ha): 100%; Pre-emergence action against VERPE in % (VERPE [11]): 100%; Post-emergence action against STEME in % (STEME [9]; 320 g/ha): 80%; Post-emergence action against VIOTR in % (VIOTR [14]): 80%; Post-emergence action against HORMU in % (HORMU [15]): 80%
CCOC(=O)COc1nn(-c2ccccc2)c(-c2ccc(F)cc2)c1Br [I-056]	–	100	100	100	80	80	80	90	80	80	80	80	80	80	good herbicidal efficacy	Pre-emergence action at 1280 g/ha against ALOMY in % (ALOMY [16]): 90%; Pre-emergence action at 1280 g/ha against CYPES in % (CYPES): 90%; Pre-emergence action against MATIN in % (MATIN [17]): 90%; Pre-emergence action at 1280 g/ha against AVEFA in % (AVEFA [18]): 80%; Pre-emergence action against VIOTR in % (VIOTR [19]): 80%; Post-emergence action against ALOMY in % (ALOMY [20]): 90%; Post-emergence action against AVEFA in % (AVEFA [21]): 90%; Post-emergence action against PHBPU in % (PHBPU): 80%; Post-emergence action against VERPE in % (VERPE [22]): 90%
